Results reported in patent US20180303853A1, “COMPOSITIONS AND METHODS FOR TREATING BACTERIAL INFECTIONS USING CEFTAROLINE” (priority 2017, published 2018).
Read-outs that look alike come from different tables or passages of the source.

Tests used:
[1] = system: MDRSP (multidrug-resistant); format: in vivo, Streptococcus pneumoniae; settings: CABP, ME patients
Method: (§1) In both treatment groups of CABP Study 1, two doses of oral clarithromycin (500 mg q12 h), were administered as adjunctive therapy starting on Study Day 1. No adjunctive macrolide therapy was used in CABP Study 2. Patients with new or progressive pulmonary infiltrate(s) on chest radiography and clinical signs and symptoms consistent with CABP with the need for hospitalization and IV therapy were enrolled in the studies. Treatment duration was 5 to 7 days. A switch to oral therapy was not allowed. The Modified Intent-to-Treat Efficacy (MITTE) population, included all patients who received any amount of study drug according to their randomized, treatment group and were in PORT (Pneumonia Outcomes Research Team) Risk Class III or IV.
(§2) The primary efficacy endpoint was the clinical response at the Test of Cure (TOC) visit in the co-primary Ce and MITTE populations (Table 4).

[2] = system: MSSA (methicillin-susceptible); assay: Integrated Phase 3 CABP studies, clinical cure by infecting pathogen; format: in vivo, Staphylococcus aureus; settings: ME patients
Method: as §1, §2

[3] = system: Community-Acquired Bacterial Pneumonia (CABP); assay: Two Phase 3 studies in CABP, clinical cure at TOC (single and integrated/combined); format: in vivo, human; settings: for Combined clinical cure rate: combined data of the two CAP studies, TOC
Method: as §1, §2

S. aureus [4] = assay: Example 5 CAP study, outcome by baseline pathogen; format: in vivo
Excerpt: (§3) Per-pathogen clinical cure rate and favorable microbiological outcome rate at TOC in the mMITTE and ME Populations;

E. coli = assay: Example 5 CAP study, outcome by baseline pathogen; format: in vivo
Excerpt: as §3

H. influenzae [5] = assay: Example 5 CAP study, outcome by baseline pathogen; format: in vivo
Excerpt: as §3

H. parainfluenzae [6] = assay: Example 5 CAP study, outcome by baseline pathogen; format: in vivo
Excerpt: as §3

S. pneumoniae [7] = assay: Example 5 CAP study, outcome by baseline pathogen; format: in vivo
Excerpt: as §3

MDRSP [8] = assay: Example 5 CAP study, outcome by baseline pathogen; format: in vivo, S. pneumoniae
Excerpt: as §3

MDRSP [9] = assay: Example 4 CAP study, outcome by baseline pathogen; format: in vivo, S. pneumoniae
Excerpt: as §3

Staphylococcus aureus = assay: Integrated Phase 3 CABP studies, clinical cure by infecting pathogen; format: in vivo; settings: ME patients
Method: as §1, §2

Haemophilus influenzae = assay: as above; format: in vivo; settings: ME patients
Method: as §1, §2

Klebsiella pneumoniae = assay: as above; format: in vivo; settings: ME patients
Method: as §1, §2

Streptococcus pneumoniae = assay: as above; format: in vivo; settings: ME patients
Method: as §1, §2

Escherichia coli = assay: as above; format: in vivo; settings: ME patients
Method: as §1, §2

[10] = human, in vivo
Method: (§7) Study-Drug: Ceftaroline fosamil was administered in two consecutive 300 mg intravenous (IV) infusions over 30 minutes, every 12 hours (q12h). The 600-mg dose of ceftaroline fosamil infused over 60 minutes was split into two infusions in order to maintain the blind. For subjects with moderate renal impairment (30 ml/min<CrCl≤50 ml/min), as estimated by the Cockroft-Gault formula, unblinded pharmacy staff or unblinded study staff could adjust the dose of ceftaroline fosamil to two consecutive 200 mg infusions and readjust dose to two 300 mg infusions when renal function improved (CrCl>50 mL/min). The duration of treatment was between 5 to 7 days.
(§8) All subjects who received any amount of study drug were included in the safety analysis. Safety measures included monitoring for adverse events (AE) up to TOC and serious adverse events (SAE) through LFU; recording vital signs, physical examination, electrocardiogram (ECG), and clinical laboratory findings (clinical chemistry, hematology, and urinalysis), at prespecified times throughout the study.

[11] = Example 4 CAP study, safety
Method: as §7, §8

S. aureus [12] = assay: Example 4 CAP study, outcome by baseline pathogen; format: in vivo
Excerpt: as §3

K. pneumoniae = assay: Example 4 CAP study, outcome by baseline pathogen; format: in vivo
Excerpt: as §3

H. influenzae [13] = assay: Example 4 CAP study, outcome by baseline pathogen; format: in vivo
Excerpt: as §3

H. parainfluenzae [14] = assay: Example 4 CAP study, outcome by baseline pathogen; format: in vivo
Excerpt: as §3

S. pneumoniae [15] = assay: Example 4 CAP study, outcome by baseline pathogen; format: in vivo
Excerpt: as §3

[16] = system: community-acquired pneumonia (CAP); assay: Example 4 Phase 3 study, ceftaroline vs ceftriaxone in CAP, efficacy; format: in vivo, human
Excerpt: (§4) The secondary objectives of the study were to evaluate the following: clinical response at end-of-therapy (EOT); the microbiological favorable outcome rate at TOC; the overall (clinical and radiographic) success rate at TOC; the clinical and microbiological response by pathogen at TOC; clinical relapse at late follow-up (LFU); microbiological reinfection/recurrence at LFU; and safety.
(§5) The following criteria were used for evaluation: The primary efficacy outcome measures were the pet-subject clinical cure rate at test-of-cure (TOC) in the CE and MITTE Populations Subjects were considered clinically cured at TOC if they had total resolution of all signs and symptoms of the baseline infection, or improvement of the infection such that no further antimicrobial therapy was necessary.
(§6) Non-inferiority was concluded if the lower limit of the 95% CI was higher than −10%.

[17] = Example 5 CAP study, safety
Method: (§9) Study drug: Ceftaroline fosamil was administered in two consecutive 300 mg intravenous (IV) infusions over 30 minutes, every 12 hours (q12h). The 600-mg dose of ceftaroline fosamil infused over 60 minutes was split into two infusions in order to maintain the blind. For subjects with moderate renal impairment (30 mL/min<CrCl≤50 mL/min), as estimated by the Cockroft-Gault formula, unblinded pharmacy staff or unblinded study staff could adjust the dose of ceftaroline fosamil to two consecutive 200 mg infusions and readjust dose to two 300 mg infusions when renal function improved (CrCl>50 mL/min). The duration of treatment was between 5 to 7 days.
(§10) All subjects initially received two doses (500 mg every 12 hours) of oral adjunctive therapy with clarithromycin following randomization.
(§11) All subjects who received any amount of study drug were included in the safety analysis. Safety measures included monitoring for adverse events (AE) up to TOC and serious adverse events (SAE) through LFU; recording vital signs, physical examination, electrocardiogram (ECG), and clinical laboratory findings (clinical chemistry, hematology, and urinalysis); at prespecified times throughout the study.

[18] = human, in vivo; remark: listed apart in the source
Method: as §9, §10, §11

[19] = system: community-acquired pneumonia (CAP); assay: Example 5 Phase 3 study, ceftaroline vs ceftriaxone with adjunctive clarithromycin in CAP, efficacy; format: in vivo, human
Excerpt: as §4, with “objective” for “objectives”, “was” for “were”, “following: the” for “following:”
as §5, with “The” for “The following criteria were used for evaluation: The”, “per-subject” for “pet-subject”, “TOC” for “test-of-cure (TOC)”, “Populations.” for “Populations”
as §6

[20] = system: CYP1A2, CYP2B6, CYP2C8, CYP2C9, CYP2CI9, or CYP3A4/5; assay: CYP induction in human hepatocytes; format: in vitro ADME

SMILES: CO/N=C(\C(=O)N[C@@H]1C(=O)N2C(C(=O)O)=C(CSc3nc(=O)c(=O)[nH]n3C)CS[C@H]12)c1csc(N)n1 [Ceftriaxone, ceftriaxone, reference compound]
- Clinical cure rate by infecting pathogen [1]: 1/4 (25.0%)
- Clinical cure rate by infecting pathogen [2]: 14/25 (56.0%)
- Clinical cure rate at TOC ([3]; CABP Study 1, CE population): 183/234 (78.2%)
- Clinical cure rate at TOC ([3]; CABP Study 1, MITTE population): 233/300 (77.7%)
- Clinical cure rate at TOC ([3]; CABP Study 2, CE population): 166/215 (77.2%)
- Clinical cure rate at TOC ([3]; CABP Study 2, MITTE population): 206/273 (75.5%)
- Clinical cure rate at TOC ([3]; Integrated Studies, CE population, 5 to 7 days of therapy): 349/449 (77.7%)
- Clinical cure rate at TOC ([3]; Integrated Studies, MITTE population): 439/573 (76.6%)
- Combined clinical cure rate ([3]; CE): 349/449 (77.7) %
- Combined clinical cure rate ([3]; ME): 111/147 (75.5) %
- Combined clinical cure rate ([3]; MITTE): 439/573 (76.6) %
- Combined clinical cure rate ([3]; mMITTE): 126/168 (75.0) %
- Favorable Microbiological Outcome at TOC by Baseline Pathogen (S. aureus [4]; Example 5, ME): 8/12 (66.7)
- Clinical Cure Rate at the TOC Visit by Baseline Pathogen (S. aureus [4]; Example 5, ME Population): 7/12 (58.3)
- Favorable Microbiological Outcome at TOC by Baseline Pathogen (E. coli; Example 5, ME): 6/6 (100.0)
- Clinical Cure Rate at the TOC Visit by Baseline Pathogen (E. coli; Example 5, ME Population): 5/6 (83.3)
- Favorable Microbiological Outcome at TOC by Baseline Pathogen (H. influenzae [5]; Example 5, ME): 6/8 (75.0)
- Clinical Cure Rate at the TOC Visit by Baseline Pathogen (H. influenzae [5]; Example 5, ME Population): 6/8 (75.0)
- Favorable Microbiological Outcome at TOC by Baseline Pathogen (H. parainfluenzae [6]; Example 5, ME): 9/10 (90.0)
- Clinical Cure Rate at the TOC Visit by Baseline Pathogen (H. parainfluenzae [6]; Example 5, ME Population): 9/10 (90.0)
- Favorable Microbiological Outcome at TOC by Baseline Pathogen (S. pneumoniae [7]; Example 5, ME): 18/27 (66.7)
- Clinical Cure Rate at the TOC Visit by Baseline Pathogen (S. pneumoniae [7]; Example 5, ME Population): 18/27 (66.7)
- Favorable Microbiological Outcome at TOC by Baseline Pathogen (MDRSP [8]; Example 5, ME): 0
- Clinical Cure Rate at the TOC Visit by Baseline Pathogen (MDRSP [8]; Example 5, ME Population): 0
- Favorable Microbiological Outcome at TOC by Baseline Pathogen (MDRSP [9]; Example 4, ME): 2/4 (50.0)
- Clinical Cure Rate at the TOC Visit by Baseline Pathogen (MDRSP [9]; Example 4, ME Population): 1/4 (25.0)
- Clinical cure rate by infecting pathogen (Staphylococcus aureus): 15/27 (55.6%)
- Clinical cure rate by infecting pathogen (Haemophilus influenzae): 17/20 (85.0%)
- Clinical cure rate by infecting pathogen (Klebsiella pneumoniae): 10/12 (83.3%)
- Clinical cure rate by infecting pathogen (Streptococcus pneumoniae): 41/59 (69.5%)
- Clinical cure rate by infecting pathogen (Escherichia coli): 9/12 (75.0%)
- Adverse event: COPD [10]: 5 (1.6) %
- Adverse event: Diarrhea [10]: 9 (2.9) %
- Adverse event: Head ache [10]: 5 (1.6) %
- Adverse event: Hypertension [10]: 8 (2.6) %
- Adverse event: Pleural effusion [10]: 7 (2.3) %
- Adverse event: Pneumonia [10]: 4 (1.3) %
- study-drug-related TEAE: alanine aminotransferase increased [10]: 1.0%
- study-drug-related TEAE: blood creatinine phosphokinase increased [10]: 0.7%
- study-drug-related TEAE: heartache [10]: 1.0%
- subjects with any study-drug-related TEAEs [10]: 13.7%
- hemolytic anemia [11]: No evidence of hemolytic anemia
- incidence of deaths [11]: 2.0%
- Favorable Microbiological Outcome at TOC by Baseline Pathogen (S. aureus [12]; Example 4, ME): 11/15 (73.3)
- Clinical Cure Rate at the TOC Visit by Baseline Pathogen (S. aureus [12]; Example 4, ME Population): 8/15 (53.3)
- Favorable Microbiological Outcome at TOC by Baseline Pathogen (K. pneumoniae; Example 4, ME): 7/8 (87.5)
- Clinical Cure Rate at the TOC Visit by Baseline Pathogen (K. pneumoniae; Example 4, ME Population): 7/8 (87.5)
- Favorable Microbiological Outcome at TOC by Baseline Pathogen (H. influenzae [13]; Example 4, ME): 11/12 (91.7)
- Clinical Cure Rate at the TOC Visit by Baseline Pathogen (H. influenzae [13]; Example 4, ME Population): 11/12 (91.7)
- Favorable Microbiological Outcome at TOC by Baseline Pathogen (H. parainfluenzae [14]; Example 4, ME): 7/7 (100.0)
- Clinical Cure Rate at the TOC Visit by Baseline Pathogen (H. parainfluenzae [14]; Example 4, ME Population): 6/7 (85.7)
- Favorable Microbiological Outcome at TOC by Baseline Pathogen (S. pneumoniae [15]; Example 4, ME): 25/32 (78.1)
- Clinical Cure Rate at the TOC Visit by Baseline Pathogen (S. pneumoniae [15]; Example 4, ME Population): 23/32 (71.9)
- Clinical Success at the TOC Visit ([16]; Example 4, CE population): 166 (77.2) %
- Favorable Microbiological Outcome at the TOC Visit ([16]; Example 4, ME population): 63 (82.9) %
- Clinical Success at the TOC Visit ([16]; Example 4, MITTE population): 206 (75.5) %
- hemolytic anemia [17]: No evidence of hemolytic anemia
- percentage of deaths [17]: 2.6%
- Adverse event: Constipation [18]: 5 (1.6) %
- Adverse event: Hypertension [18]: 8 (2.6) %
- TEAEs assessed as drug related by the Investigators [18]: 12.7%
- study-drug-related TEAE: headache [18]: 0.0%
- study-drug-related TEAE: hepatic enzyme increased [18]: 1.0%
- study-drug-related TEAE: sinus bradychardia [18]: 1.0%
- Clinical Success at the TOC Visit ([19]; Example 5, CE population): 183 (78.2) %
- Favorable Microbiological Outcome at the TOC Visit ([19]; Example 5, ME population): 56 (78.9) %
- Clinical Success at the TOC Visit ([19]; Example 5, MITTE population): 233 (77.7) %
- Favorable Microbiological Outcome at the TOC Visit ([19]; Example 5, mMITTE population): 63 (78.8) %

SMILES: CCO/N=C(\C(=O)N[C@H](C(=O)[O-])[C@@H]1NC(C(=O)[O-])=C(Sc2nc(-c3cc[n+](C)cc3)cs2)CS1)c1nsc(N)n1.[H+] [ceftaroline M-1]
- induction of CYP isoenzymes [20]: not inducers
